Results from patent US6632981B1, “DNA sequences encoding polypeptides having beta-1,3-glucanase activity” (Novartis Finance Corporation, priority 1988, dated 2003).

Tests used:
chimeric PR-1a/GUS gene = test: Transient GUS expression in tobacco protoplasts treated with pCIB269; type: cell-based, N. tabacum; conditions: H2O 30.6 13
Procedure: B. DNA is introduced into protoplasts by a modification of the method of Negrutiu, I. et al., Plant Mol. Biol. 8: 363 (1987). The protoplasts prepared as described in part A are resuspended following the last washing step in a solution consisting of 0.4 M mannitol, 15-30 mM CaCl2, 0.1% w/v MES at a density of 1.6-2×10^6 per ml. The protoplast suspension is distributed as 0.5 ml aliquots into 10 ml plastic centrifuge tubes. DNA such as that described in Examples 28 to 40 is added in 10 l sterile distilled water, sterilized as described by Paszkowski, J. et al., EMBO J. 3: 2717 (1984), and then 0.5 ml of the PEG solution (40% (w/v) PEG MW 8000 in 0.4 M mannitol, 0.1 M Ca(NO3)2, pH 7.0) is added. The solutions are mixed gently and incubated for 30 minutes at room temperature (about 24° C.) with occasional shaking. 1 ml of the wash solution is then added, and the contents of the tube gently mixed. […]
The reactions are carried out in the wells of ELISA plates by mixing 5-25 l extract with 120-100 l GUS assay buffer (50 mM sodium phosphate buffer pH 7.0, 0.1% Triton X-100, 10 mM β-mercaptoethanol) containing 4-methyl umbelliferyl glucuronide (MU) at a final concentration of 2 mM in a total volume of 125 l. […] The concentration of fluorescent indicator released is determined by reading the plate on a Flow Labs Fluoroskan II ELISA plate reader.

endogenous PR-1a gene = test: Assay for chemical induction of the endogenous PR-1a gene (mRNA, primer extension); type: in vivo; conditions: tobacco plant materials, control procedure
Procedure: 50 g of total RNA is lyophilized in a 500 l Eppendorf tube. The RNA is resuspended in 30 l of radiolabeled probe solution and heated to 70′ C. for 10 minutes. The tube is slowly cooled to 37° C. and allowed to incubate overnight. Without removing the tube from the 37° C. water bath, 2 l of 10×reverse-transcriptase buffer (500 mM Tris-HCl, pH 7.5, 400 mM KCl, 30 mM MgCl2), 1 l 5 mg/ml bovine serum albumin, 5 l 100 mM dithiothreitol, 5 l 10×dNTPs (10 mM of each dNTP in H2O), 3 l H 20, 2 l RNasin (80 units), and 2 l reverse transcriptase (400 units) are added and the reaction is incubated at 37° C. for 30 minutes. To stop the reaction, 5 l of 3 M sodium acetate, pH 5, and 150 l absolute ethanol are added. The tube is left at −20° C. for 30 minutes, the precipitate is collected by centrifugation, washed with 80% ethanol and allowed to air-dry. The precipitate is resuspended in 10-20 l of loading dye (90% formamide, 0.05% bromophenol blue, 0.05% xylene cyanol, 1 mM EDTA) and the extension products are separated on a 6% sequencing gel (Maniatis, T. et al., supra). Extension products are visualized by autoradiography.
As a control procedure, tobacco plant materials induced as described in Examples 139-141 by salicylic acid, methyl benzo-1,2,3-thiadiazole-7-carboxylate and TMV are assayed for transcription of mRNA from the endogenous PR-1a gene by the methods described in Example 6.

Structure (SMILES)	GUS activity, transient expression (chimeric PR-1a/GUS gene) [pKat MU/mg protein]	transcription of mRNA from the endogenous PR-1a gene (endogenous PR-1a gene)
COC(=O)c1cccc2nnsc12 [Methyl benzo-1,2,3-thiadiazole-7-carboxylate]	66.6	Elevated levels of mRNA
O=C(O)c1ccccc1O [Salicylic acid, salicylic acid]	–	Elevated levels of mRNA
